Experimental data published in patent US8372889B2, “Methods for modulating metabolism” (Omega Biopharma (I.P.3) Limited, priority 2004, dated 2013).
Structures can show the parent of a compound that is named as a salt.

Experiments:
[1] = test system: diabetic patients; assay: Open-label, randomized trial in diabetes type II patients (Example 4); details: for 24 h Microalbuminuria, Pre-treatment / FBS (fasting blood sugar), Pre-treatment / FCP (C peptide), Pre-treatment / FINS (fasting insulin), Pre-treatment / HOMA (Homeostasis Model Assessment), Pre-treatment / IGF, Pre-treatment / UA (blood uric acid), Pre-treatment: baseline before the trial treatment
Experimental: A small open-label, randomized trial was carried out at the national reference center for diabetes in China. Sixty patients of both sexes (ages ranged from 30 to 75 years old) diagnosed with diabetes type II were recruited. All subjects were informed and gave their consent to participate. Diabetes was diagnosed based on the WHO criteria set in 1999. […] Patients with the following conditions were excluded from the study: (1) dysfunction of heart, liver and/or kidney; (2) with acute diabetic complications and/or any acute cardiovascular complications or other chronic diseases in the past three months; and (3) pregnancy or nursing.
Patients were divided randomly into four groups of 15 patients each. A control group of subjects was not administered anti-diabetic drugs. The cysteamine alone (DC) group was treated with 540 mg/day of cysteamine hydrochloride. In the Metformin alone (Met) group, the dose of Metformin remained unchanged during the two months period. For the DC+Met group, patients remained on the same dose of Metformin they were originally administered, including an additional 100 mg/day of cysteamine hydrochloride. All patients were subjected to treatments for two months and samples were collected and measured at the beginning of, one month after, and two month after the trial for analysis. The results described herein are derived from the samples collected and measured at the beginning of the first month after the trial.

[2] = test system: GK diabetic rats; assay: Plasma insulin and adiponectin in GK diabetic rats (Example 3); assay type: in vivo, rat
Experimental: (§1) Thirty-six Goto-Kakizaki Wistar (GK) rats (purchased from Shanghai Slaccas Laboratory Animal Center) aged about 13 weeks and weighting 321-323 g were acclimated to the animal facility for two weeks in individual cages. Food and water were provided ad libitum.
(§2) The 36 GK rats were divided into 4 groups based on body weight (BW) and plasma glucose level. Group 1 (control, n=10) was treated with saline by gavage (2 ml/rat); Group 2 (DC, n=6) was treated with cysteamine hydrochloride by gavage (22.5 mg/kg BW in 2 ml tap water); Group 3 (Metformin, Met, n=10) was treated with Metformin by gavage (34 mg/kg BW in 2 ml tap water); Group 4 (Met+DC, n=10) was treated with Metformin 34 mg/kg BW/day in 2 ml tap water for the first 10 days and then was treated with both cysteamine hydrochloride 22.5 mg/kg BW plus Metformin 34 mg/kg BW in 2 ml tap water for the second 10 days. All animals were treated at 10:00 for 20 days.
The four groups of animals were kept in the same room (temp 23±3° ., relative humidity 65±1%) in different cages with wire mesh bottoms to reduce coprophagia throughout the experiment. The rats were subjected to fasting overnight from 22:00 to 9:30 of the following day before being subjected to a glucose tolerance test. The rats were treated with glucose 2 g/kg BW in 2 ml tap water at 9:30 for the glucose tolerance test and the blood was collected from the tail vein at 0.5 hr, 1 hr, 2 hr, and 3 hr after glucose injection. Plasma glucose concentrations were determined by Glucotrendr2 equipment (Roche Diagnostics, Basel, Switzerland). Plasma insulin concentrations were determined by radioimmunoassay (Insulin RIA Kit, NO:0410, purchased from Shanghai Radioimmunoassay Research Institution).

[3] = test system: glut 4; assay: glut 4 expression in different tissues of GK diabetic rats (Example 3); assay type: in vivo, rat; details: liver, muscles, adipocytes
Experimental: Thirty-six Goto-Kakizaki Wistar (GK) rats (purchased from Shanghai Slaccas Laboratory Animal Center) aged about 13 weeks and weighting 321-323 g were acclimated to the animal facility for two weeks in individual cages. Food and water were provided ad libitum. The 36 GK rats were divided into 4 groups based on body weight (BW) and plasma glucose level. […] Group 2 (DC, n=6) was treated with cysteamine hydrochloride by gavage (22.5 mg/kg BW in 2 ml tap water); […] All animals were treated at 10:00 for 20 days.

[4] = test system: Goto-Kakizaki Wistar rats (GK rats); assay: Oral glucose tolerance test and starving plasma glucose in GK rats (Example 1); details: oral Metformin alone
Experimental: Nineteen male Goto-Kakizaki Wistar rats (GK rats) with weights of 300±20 g were kept in steel cages, 3-4 rats per cage. The cages were changed every two days. Indoor temperature and relative humidity was kept at 23±3° . and 65±1% respectively. Feed and drinking water was provided. GK rats were permitted a one-month period for adaptation.
One day prior to experimentation, at 17:00, all of the feed was removed from all groups, but not the drinking water. On the second day, at 09:30, starving plasma glucose was measured for all GK rats. At 10:00, glucose tolerance test (2 g/kg BW) was performed and the plasma glucose level was measured as well for all GK rats. […] On the ninth day, starving plasma glucose was measured and oral glucose tolerance test was performed again for all GK rats in all groups. […]
Six days following the change in regimen, starving plasma glucose was measured and glucose tolerance tests were performed, and blood and tissue samples were collected (liver, duodenum, pancreas gland, fat, and muscle) for all GK rats in all groups. […]
The glucose tolerance tests that were performed included the steps of starving the GK rats overnight. Next day at 09:30, starving plasma glucose was measured. […]

[5] = test system: fat-feed rats; assay: Lipids, free fatty acid and uric acid in fat-feed rats (Example 5); assay type: in vivo, rat; details: for CH / FFA / HDL / LDL / TG / UA: Mean + STD
[6] = test system: GK diabetic rats; assay: Glucose tolerance test in GK diabetic rats (Example 3); assay type: in vivo, rat
Experimental: as §1, §2
The four groups of animals were kept in the same room (temp 23±3° ., relative humidity 65±1%) in different cages with wire mesh bottoms to reduce coprophagia throughout the experiment. […] Plasma glucose concentrations were determined by Glucotrendr2 equipment (Roche Diagnostics, Basel, Switzerland). Plasma insulin concentrations were determined by radioimmunoassay (Insulin RIA Kit, NO:0410, purchased from Shanghai Radioimmunoassay Research Institution).

[7] = test system: normal Wistar rats; assay: Fasting plasma glucose and insulin in normal Wistar rats (Example 2); assay type: in vivo, rat; details: for Fasting glucose / Fasting insulin: normal Wistar rats, Mean ± STD
Experimental: Thirty-two male Wistar rats (purchased from Shanghai Slaccas Laboratory Animal Center) aged about 13 weeks and weighting around 300 g were acclimated to the animal facility for two weeks in individual cages. Food and water were provided ad libitum. The Wistar rats were divided randomly into 4 groups and each group contained 8 rats. […] All animals were treated at 10:00 for 27 days. The four groups of animals were kept in the same room in different cages with wire mesh bottoms to reduce coprophagia throughout the experiment. […] Plasma glucose concentrations were determined by Glucotrendr2 equipment (Roche Diagnostics, Basel, Switzerland). Plasma insulin concentrations were determined by radioimmunoassay (Insulin RIA Kit, NO:0410, purchased from Shanghai Radioimmunoassay Research Institution). The abbreviation STD denotes the variability of the data about the mean or “standard deviation.” The abbreviation p denotes the level of significance of the results.

[8] = doses of 11.25 mg/kg and 22.5 mg/kg
[9] = DC15: 15 mg/kg BW by gavage for 27 days
[10] = DC22.5: 22.5 mg/kg BW by gavage for 27 days
[11] = DC30: 30 mg/kg BW by gavage for 27 days
[12] = normal, fasting Wistar rats, 15-30 mg/kg BW

Q: What does the source list for `CN(C)C(=N)N=C(N)N` [Metformin, reference compound]?
A: insulin-like growth factor 1 (IGF1) (in words) [1]: only a decrease; 24 h Microalbuminuria, Pre-treatment [1]: 27.5 ± 23.69; FBS (fasting blood sugar), Pre-treatment [1]: 8.92 ± 2.7; FCP (C peptide), Pre-treatment [1]: 579 ± 212; FINS (fasting insulin), Pre-treatment [1]: 19.35 ± 10.2; HOMA (Homeostasis Model Assessment), Pre-treatment [1]: 7.33 ± 3.3; IGF, Pre-treatment [1]: 52.81 ± 10.04; UA (blood uric acid), Pre-treatment [1]: 320 ± 67; insulin levels (in words) [2]: decreased, but not statistically significant; expression of total glut4 (in words) [3]: increased, but not significantly; duodenal plasma glucose levels and insulin resistance (in words) [4]: to some extent, lowers

Q: With `NCCS` [cysteamine hydrochloride] as the compound, how does the “LDL (in words)” value [5] read?
A: decrease LDL but not significantly

Q: And the CH ([5]; DC11.25: 11.25 mg/kg)?
A: 1.6 ± 0.31 mmol/L

Q: And the FFA ([5]; DC11.25: 11.25 mg/kg)?
A: 842 ± 256 µmol/L

Q: What about the HDL ([5]; DC11.25: 11.25 mg/kg) of the same compound?
A: 1.11 ± 0.16 mmol/L

Q: And the LDL ([5]; DC11.25: 11.25 mg/kg)?
A: 0.61 ± 0.18 mmol/L

Q: What about the TG ([5]; DC11.25: 11.25 mg/kg) of the same compound?
A: 1.15 ± 0.12 mmol/L

Q: What about the UA ([5]; DC11.25: 11.25 mg/kg) of the same compound?
A: 17.41 ± 1.99 mg/L

Q: What about the CH ([5]; DC22.5: 22.5 mg/kg) of the same compound?
A: 1.55 ± 0.27 mmol/L

Q: What about the FFA ([5]; DC22.5: 22.5 mg/kg) of the same compound?
A: 1087 ± 181 µmol/L

Q: What about the HDL ([5]; DC22.5: 22.5 mg/kg) of the same compound?
A: 1.04 ± 0.09 mmol/L

Q: What about the LDL ([5]; DC22.5: 22.5 mg/kg) of the same compound?
A: 0.63 ± 0.18 mmol/L

Q: What about the TG ([5]; DC22.5: 22.5 mg/kg) of the same compound?
A: 1.1 ± 0.08 mmol/L

Q: What about the UA ([5]; DC22.5: 22.5 mg/kg) of the same compound?
A: 16.12 ± 1.04 mg/L

Q: And the “free fatty acid (in words)” value ([5]; at doses indicated)?
A: significantly decrease

Q: What about the “uric acid (in words)” value ([5]; at doses indicated) of the same compound?
A: significantly decrease

Q: And the “cholesterol levels (in words)” value [5, 8]?
A: can decrease

Q: What about the “triglyceride levels (in words)” value [5, 8] of the same compound?
A: can decrease

Q: What about the “HDL (in words)” value ([5]; not significantly) of the same compound?
A: trend that cysteamine can increase HDL

Q: And the “Glucose tolerance test, plasma glucose, 2 hr” value ([6]; gavage DC 22.5 mg/kg BW, Metformin 34 mg/kg BW, 20 days, Met+DC: DC added for second 10 days, after glucose 2 g/kg BW, Mean ± STD)?
A: 11.00 ± 0.8 mmol/L

Q: And the “glucose levels (in words)” value ([6]; glucose tolerance test, combination compared with Metformin alone, all time points except Fasting)?
A: did not affect

Q: And the “C peptide (CP) (in words)” value [1]?
A: decreases significantly

Q: What about the “HOMA (Homeostasis Model Assessment) (in words)” value [1] of the same compound?
A: decreases significantly

Q: What about the “blood uric acid (UA) levels (in words)” value [1] of the same compound?
A: decreases significantly

Q: What about the “fasting insulin (FINS) (in words)” value [1] of the same compound?
A: decreases significantly

Q: What about the “insulin-like growth factor 1 (IGF1) (in words)” value [1] of the same compound?
A: decreases significantly

Q: What about the “microalbuminuria (in words)” value [1] of the same compound?
A: obvious but not statistically significantly

Q: And the “24 h Microalbuminuria, Pre-treatment” value [1]?
A: 42.73 ± 31.33

Q: And the “FBS (fasting blood sugar), Pre-treatment” value [1]?
A: 7.52 ± 1.57

Q: What about the “FCP (C peptide), Pre-treatment” value [1] of the same compound?
A: 739 ± 183

Q: And the “FINS (fasting insulin), Pre-treatment” value [1]?
A: 35.39 ± 14.43

Q: What about the “HOMA (Homeostasis Model Assessment), Pre-treatment” value [1] of the same compound?
A: 11.94 ± 4.62

Q: And the “IGF, Pre-treatment” value [1]?
A: 49.36 ± 5.75

Q: And the “UA (blood uric acid), Pre-treatment” value [1]?
A: 389 ± 50.98

Q: And the “adiponectin (in words)” value [2]?
A: significantly increased

Q: What about the “insulin levels (in words)” value [2] of the same compound?
A: did not affect

Q: And the Fasting glucose [7, 9]?
A: 4.05 ± 0.23

Q: What about the Fasting insulin [7, 9] of the same compound?
A: 48.82 ± 3.27

Q: What about the Fasting glucose [7, 10] of the same compound?
A: 3.94 ± 0.27

Q: What about the Fasting insulin [7, 10] of the same compound?
A: 48.39 ± 2.38

Q: And the Fasting glucose [7, 11]?
A: 3.95 ± 0.17

Q: What about the Fasting insulin [7, 11] of the same compound?
A: 51.32 ± 2.94

Q: And the “blood glucose levels (in words)” value [7, 12]?
A: dose-dependent effect on lowering

Q: What about the “blood insulin levels (in words)” value [7, 12] of the same compound?
A: does not affect

Q: And the “expression of total glut4 (in words)” value [3]?
A: significantly increase
